In ChEMBL document CHEMBL1201862, “PubChem BioAssay data set” (2004):
Activity calls are given as the source filed them.

Legend:
[1] = molecular target: T1, E3 ubiquitin-protein ligase XIAP (Homo sapiens, UniProt P98170); test: Counter Screen using XIAP-Bir3 for Chemical Antagonists of Bir1/2 domains of IAP-family anti-apoptotic proteins. [Related pubchem assays (depositor defined):AID1018, AID1449, AID1514, AID1638, AID1749, AID1750, AID488957, AID488963]
[2] = inhibitors of firefly luciferase expression or activity, dose response, H4 neuroglioma cells, luminescence (AID 1990); type: functional, cell-based
[3] = molecular target: T1, E3 ubiquitin-protein ligase XIAP; test: XIAP antagonists, biochemical, IAP family, fluorescence polarization (AID 1018); type: functional
[4] = Luminescence Cell-Based Dose Response HTS to Identify Inhibitors of 5'UTR Stem-Loop Driven Prion Protein mRNA Translation in H4 Neuroglioblastoma Cells. [Related pubchem assays: 1827 (Project Summary), 1813 (Primary HTS)]; type: functional
[5] = inhibitors of SNCA 5'UTR-driven reporter translation, confirmation, H4 neuroglioma cells, luminescence (AID 1988); type: functional, cell-based
cells [6] = type: functional, cell-based
[7] = molecular target: Heat shock protein HSP 90-alpha (Homo sapiens, UniProt P07900); type: functional, organism-based
[8] = Counterscreen for AddAB inhibitors: absorbance-based bacterial cell-based high throughput dose response assay for inhibitors of bacterial viability. [Related pubchem assays (depositor defined):AID435030, AID449728, AID449731, AID488942, AID488955, AID488956]; type: functional
[9] = human group III sPLA2 inhibitors, dose response, biochemical, QFRET, IC50 (AID 743457);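 further: green fluorescence rise as the enzyme cleaves BODIPY PC-A2 in liposomes; potency for inhibition of the enzyme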
INS1 = test: beta cell apoptosis inhibitors, cytokine rescue, dose response, luminescence, retest (AID 449756); type: functional, cell-based; settings: Rattus norvegicus;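 further: cell death triggered by IL-1 beta plus TNF-alpha plus IFN-gamma mixture; protective hits raise ATP signal compared with cytokine alone wells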
cells [10] = type: functional, cell-based; remark: listed apart in the source
Exodeoxyribonuclease V = molecular target: T2, Exodeoxyribonuclease V (Escherichia coli (strain K12), UniProt P04993+P07648+P08394); test: E. coli RecBCD inhibitors, dose response, counter-screen for AddAB inhibitor project, absorbance, V66 E. coli, mutant T4 phage (AID 492957); type: functional, cell-based, Escherichia coli str. K-12 substr. MG1655
T2 sequence (P04993 whole entry): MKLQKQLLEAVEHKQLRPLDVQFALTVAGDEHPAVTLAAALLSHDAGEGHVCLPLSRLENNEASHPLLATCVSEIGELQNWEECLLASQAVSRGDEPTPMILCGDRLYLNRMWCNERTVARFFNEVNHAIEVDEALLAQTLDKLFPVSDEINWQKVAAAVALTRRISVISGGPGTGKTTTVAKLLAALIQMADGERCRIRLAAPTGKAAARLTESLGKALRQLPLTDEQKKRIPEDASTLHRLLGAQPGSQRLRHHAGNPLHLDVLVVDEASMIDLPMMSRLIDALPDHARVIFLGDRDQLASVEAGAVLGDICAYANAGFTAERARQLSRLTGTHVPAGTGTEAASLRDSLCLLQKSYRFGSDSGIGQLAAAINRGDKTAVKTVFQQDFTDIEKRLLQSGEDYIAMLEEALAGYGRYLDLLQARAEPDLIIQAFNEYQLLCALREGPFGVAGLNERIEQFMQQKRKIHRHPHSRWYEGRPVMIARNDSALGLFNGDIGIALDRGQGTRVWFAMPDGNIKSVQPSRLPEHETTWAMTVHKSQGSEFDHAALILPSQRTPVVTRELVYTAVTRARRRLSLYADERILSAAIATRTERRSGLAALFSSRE
T2 sequence (P07648 whole entry): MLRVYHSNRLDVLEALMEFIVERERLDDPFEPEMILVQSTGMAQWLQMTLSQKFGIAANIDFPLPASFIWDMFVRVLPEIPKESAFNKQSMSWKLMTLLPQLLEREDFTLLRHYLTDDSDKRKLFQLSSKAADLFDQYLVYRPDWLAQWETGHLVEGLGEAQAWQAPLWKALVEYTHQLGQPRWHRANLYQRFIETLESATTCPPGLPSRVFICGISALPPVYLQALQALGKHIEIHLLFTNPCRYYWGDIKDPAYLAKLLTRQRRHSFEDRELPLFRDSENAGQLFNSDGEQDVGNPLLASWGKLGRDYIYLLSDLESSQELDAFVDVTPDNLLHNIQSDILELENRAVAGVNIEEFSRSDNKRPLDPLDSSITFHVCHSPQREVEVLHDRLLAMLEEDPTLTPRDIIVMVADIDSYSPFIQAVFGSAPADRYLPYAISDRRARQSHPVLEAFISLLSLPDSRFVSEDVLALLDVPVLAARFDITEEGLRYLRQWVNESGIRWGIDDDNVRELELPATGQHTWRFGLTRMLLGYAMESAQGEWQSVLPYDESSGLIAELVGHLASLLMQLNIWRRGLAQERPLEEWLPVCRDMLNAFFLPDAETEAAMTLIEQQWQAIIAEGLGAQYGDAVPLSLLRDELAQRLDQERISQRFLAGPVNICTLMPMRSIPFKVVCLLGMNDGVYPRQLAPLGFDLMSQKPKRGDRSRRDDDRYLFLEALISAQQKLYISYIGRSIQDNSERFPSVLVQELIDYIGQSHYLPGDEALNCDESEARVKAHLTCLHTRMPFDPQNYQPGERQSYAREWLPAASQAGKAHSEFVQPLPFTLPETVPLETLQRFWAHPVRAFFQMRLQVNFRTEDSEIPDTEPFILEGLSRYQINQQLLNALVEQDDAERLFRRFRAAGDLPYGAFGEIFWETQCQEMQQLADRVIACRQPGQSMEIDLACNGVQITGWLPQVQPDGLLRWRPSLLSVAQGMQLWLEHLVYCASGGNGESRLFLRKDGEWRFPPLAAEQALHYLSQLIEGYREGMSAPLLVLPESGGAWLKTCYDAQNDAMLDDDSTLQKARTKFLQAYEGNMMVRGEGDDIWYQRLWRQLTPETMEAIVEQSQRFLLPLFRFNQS
T2 sequence (P08394 whole entry): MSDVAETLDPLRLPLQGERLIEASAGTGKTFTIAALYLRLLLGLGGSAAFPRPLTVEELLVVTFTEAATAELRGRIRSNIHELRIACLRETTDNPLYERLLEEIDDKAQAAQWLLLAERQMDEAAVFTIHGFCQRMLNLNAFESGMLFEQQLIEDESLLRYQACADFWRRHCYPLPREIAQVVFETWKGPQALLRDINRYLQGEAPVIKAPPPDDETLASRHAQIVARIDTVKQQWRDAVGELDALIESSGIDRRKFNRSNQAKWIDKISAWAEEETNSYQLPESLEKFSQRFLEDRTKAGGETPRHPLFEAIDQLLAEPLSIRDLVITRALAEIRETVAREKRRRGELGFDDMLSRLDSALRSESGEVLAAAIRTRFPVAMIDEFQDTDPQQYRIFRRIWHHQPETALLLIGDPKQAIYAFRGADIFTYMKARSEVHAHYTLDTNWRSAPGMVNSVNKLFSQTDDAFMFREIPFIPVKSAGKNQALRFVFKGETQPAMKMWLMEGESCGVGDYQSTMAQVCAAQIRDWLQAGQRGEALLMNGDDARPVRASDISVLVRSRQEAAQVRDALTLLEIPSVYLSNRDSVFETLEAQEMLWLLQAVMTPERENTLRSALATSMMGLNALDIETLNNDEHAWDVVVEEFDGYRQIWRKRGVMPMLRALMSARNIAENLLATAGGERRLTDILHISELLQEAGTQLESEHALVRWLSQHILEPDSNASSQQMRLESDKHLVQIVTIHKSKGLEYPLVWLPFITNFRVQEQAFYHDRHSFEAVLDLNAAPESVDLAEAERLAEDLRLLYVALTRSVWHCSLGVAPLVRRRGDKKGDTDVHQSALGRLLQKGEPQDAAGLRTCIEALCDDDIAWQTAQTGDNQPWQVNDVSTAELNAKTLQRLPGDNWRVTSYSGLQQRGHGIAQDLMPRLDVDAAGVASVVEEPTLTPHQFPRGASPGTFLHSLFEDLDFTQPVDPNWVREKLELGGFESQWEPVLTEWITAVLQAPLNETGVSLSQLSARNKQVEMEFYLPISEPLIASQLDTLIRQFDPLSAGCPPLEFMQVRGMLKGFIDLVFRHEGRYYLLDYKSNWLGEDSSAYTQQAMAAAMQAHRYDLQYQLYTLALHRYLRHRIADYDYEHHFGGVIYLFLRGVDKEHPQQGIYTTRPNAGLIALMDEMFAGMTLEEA

[11] = molecular target: T3, Alkaline phosphatase, tissue-nonspecific isozyme (Homo sapiens, UniProt P05186); test: TNAP enzyme inhibition by screening hits, dose response, selectivity assay for mouse IAP inhibitor project, biochemical, human TNAP, uHTS hits (AID 488906); type: functional
T3 sequence (P05186 whole entry): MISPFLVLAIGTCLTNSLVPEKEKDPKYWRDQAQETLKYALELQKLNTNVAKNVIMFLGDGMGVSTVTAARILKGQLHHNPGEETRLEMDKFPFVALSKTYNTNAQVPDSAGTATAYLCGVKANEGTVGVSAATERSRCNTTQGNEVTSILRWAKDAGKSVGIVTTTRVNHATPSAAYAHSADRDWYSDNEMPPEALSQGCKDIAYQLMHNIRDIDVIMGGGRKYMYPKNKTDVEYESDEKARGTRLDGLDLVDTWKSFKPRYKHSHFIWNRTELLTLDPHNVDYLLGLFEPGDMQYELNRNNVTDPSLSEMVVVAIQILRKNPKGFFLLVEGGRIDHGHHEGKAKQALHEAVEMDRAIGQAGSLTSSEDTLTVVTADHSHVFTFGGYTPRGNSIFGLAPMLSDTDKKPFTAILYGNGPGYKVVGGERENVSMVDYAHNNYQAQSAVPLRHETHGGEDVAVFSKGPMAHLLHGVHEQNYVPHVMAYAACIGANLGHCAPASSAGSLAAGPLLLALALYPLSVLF

[12] = molecular target: Intestinal-type alkaline phosphatase (Mus musculus, UniProt P24822); test: PubChem AID 488785; type: functional
[13] = molecular target: Intestinal-type alkaline phosphatase (Homo sapiens, UniProt P09923); test: inhibition of human intestinal alkaline phosphatase – biochemical, dose response (AID 488876); type: functional
[14] = cytotoxicity toward NIH3T3 fibroblasts, dose response, counter-screen, cell-based, ATP luminescence, mouse fibroblasts (AID 2010); type: functional;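 further: cells exposed to compound for about 90 hours before reading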
[15] = NIH-3T3 fibroblast cytotoxicity, dose response, cytotoxicity control, cell-based, fluorescence, Alamar Blue, secondary assay (AID 2327); type: functional;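 further: NIH-3T3 mouse fibroblasts cultured with fluconazole at 8 µg/mL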
[16] = inhibitors of intracellular T. cruzi replication, confirmation, NIH3T3 host cells, beta-gal luminescence (AID 2044); type: functional, cell-based;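 further: intracellular parasites grown in NIH/3T3 mouse fibroblasts as host cells; luminescent beta-galactosidase reporter signal from transgenic T. cruzi replicating inside host cells; inhibitors lower the luminescence signal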
[17] = C. albicans growth with fluconazole, confirmation, fluorescence, retest (AID 2467); type: functional, cell-based
HEK293 [18] = test: cells; settings: Homo sapiens
Streptococcus = test: Group A Streptococcus viability loss, dose response, counter-screen for streptokinase expression inhibitor project, luminescence, BacTiterGlo (AID 1915); type: functional, organism-based;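 further: potency for reduction of bacterial viability or growth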
[19] = CRF-BP/CRF-R2 complex antagonists, dose response, cell-based, uHTS hits, 384-well (AID 651639); type: functional, Homo sapiens; settings: read-out: IC50_Mean
HEK293 [20] = test: NOD1 signaling inhibitors, primary screen, cell-based, luminescence, uHTS (AID 1578); type: functional; settings: Homo sapiens
HEK293 [21] = test: cells; type: functional, cell-based; settings: Homo sapiens
[22] = system: Streptococcus sp. 'group A'; test: growth inhibition of control SK(-) GAS strain, dose response, counter-screen for streptokinase expression inhibitor project, luminescence, kanamycin, BacTiterGlo, confirmation (AID 1900); type: functional, organism-based
HEK293 [23] = test: NOD2 signaling inhibitors in MDP-stimulated cells, cell-based, uHTS, luminescence (AID 2001); type: functional; settings: Homo sapiens
HEK293 [24] = test: cells; type: functional, cell-based; settings: Homo sapiens; remark: listed apart in the source

T1 sequence (P98170 whole entry): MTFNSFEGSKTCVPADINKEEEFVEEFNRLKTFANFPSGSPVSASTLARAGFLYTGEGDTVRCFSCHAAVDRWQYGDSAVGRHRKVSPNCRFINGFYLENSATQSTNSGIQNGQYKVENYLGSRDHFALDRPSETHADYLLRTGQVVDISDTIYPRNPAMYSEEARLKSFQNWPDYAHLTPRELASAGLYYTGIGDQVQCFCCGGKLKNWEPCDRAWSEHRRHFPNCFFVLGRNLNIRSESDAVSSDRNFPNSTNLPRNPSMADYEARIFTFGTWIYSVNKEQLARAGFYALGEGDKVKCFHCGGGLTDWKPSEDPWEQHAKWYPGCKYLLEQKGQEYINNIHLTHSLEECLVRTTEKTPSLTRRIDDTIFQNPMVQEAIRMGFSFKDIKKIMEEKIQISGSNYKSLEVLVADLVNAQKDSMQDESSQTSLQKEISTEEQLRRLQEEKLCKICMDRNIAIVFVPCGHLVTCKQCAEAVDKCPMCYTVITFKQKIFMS
Sequence of Intestinal-type alkaline phosphatase (Mus musculus, UniProt P24822) (P24822 whole entry): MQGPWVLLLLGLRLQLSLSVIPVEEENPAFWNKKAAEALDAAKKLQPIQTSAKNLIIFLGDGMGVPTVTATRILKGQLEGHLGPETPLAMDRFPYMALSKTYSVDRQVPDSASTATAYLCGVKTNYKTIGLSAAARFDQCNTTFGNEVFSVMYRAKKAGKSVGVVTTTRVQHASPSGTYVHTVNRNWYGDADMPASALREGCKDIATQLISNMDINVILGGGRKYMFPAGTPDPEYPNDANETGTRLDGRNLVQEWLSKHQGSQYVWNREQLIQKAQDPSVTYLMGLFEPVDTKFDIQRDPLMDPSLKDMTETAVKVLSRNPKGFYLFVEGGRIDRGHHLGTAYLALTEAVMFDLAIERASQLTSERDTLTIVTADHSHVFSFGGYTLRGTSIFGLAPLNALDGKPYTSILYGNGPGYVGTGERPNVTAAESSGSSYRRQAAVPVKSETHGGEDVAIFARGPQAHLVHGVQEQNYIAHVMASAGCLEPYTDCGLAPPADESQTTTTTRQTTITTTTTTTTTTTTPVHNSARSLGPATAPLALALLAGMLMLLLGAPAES
Sequence of Intestinal-type alkaline phosphatase (Homo sapiens, UniProt P09923) (P09923 whole entry): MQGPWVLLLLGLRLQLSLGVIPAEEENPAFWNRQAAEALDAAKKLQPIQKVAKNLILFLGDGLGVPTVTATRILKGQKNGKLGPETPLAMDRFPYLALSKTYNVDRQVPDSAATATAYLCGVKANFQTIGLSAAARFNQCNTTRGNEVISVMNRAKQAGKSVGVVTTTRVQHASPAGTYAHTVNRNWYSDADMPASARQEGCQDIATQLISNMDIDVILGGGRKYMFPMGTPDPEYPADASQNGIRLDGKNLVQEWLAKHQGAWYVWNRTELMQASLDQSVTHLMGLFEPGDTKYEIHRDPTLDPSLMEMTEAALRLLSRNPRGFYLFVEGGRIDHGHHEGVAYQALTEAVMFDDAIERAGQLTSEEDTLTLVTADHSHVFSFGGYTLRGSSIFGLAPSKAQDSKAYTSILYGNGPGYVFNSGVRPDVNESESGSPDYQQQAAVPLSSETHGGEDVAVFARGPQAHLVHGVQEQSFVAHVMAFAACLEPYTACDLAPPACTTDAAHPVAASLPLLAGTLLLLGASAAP

O=C(c1cc(-n2cnnc2)ccc1Cl)N1CCN(c2nc(-c3ccccc3)cs2)CC1
IC50 [1]: > 100 µM (inactive)
EC50 [2]: > 30 µM (not active)
IC50 [3]: > 100 µM (not active)
EC50 [4]: 15.1 µM (active)
EC50 [5]: > 120 µM (not active)

CCCCC(=O)NC(c1cccs1)c1cc(Cl)c2cccnc2c1O (centres undefined)
EC50 (cells [6]): > 350 µM (not active)
AC50 [7]: 3.6 µM (active)
IC50 [8]: > 119 µM (inactive)
IC50 [9]: > 122 µM (inactive)
AC50 (INS1): 1.19 µM (active)
EC50 (cells [10]): 57.5 µM (active)
IC50 (Exodeoxyribonuclease V): > 119 µM (inactive)

O=C(Nc1cccc(-c2cccc(Cl)c2)c1)C1CCN(C2CCC2)CC1
IC50 [11]: 11.8 µM (active)
IC50 [12]: 9.39 µM (active)
IC50 [13]: 8.64 µM (active)

CCN(CC)S(=O)(=O)c1cccc(C(=O)c2c(C)cc3ccccn23)c1
IC50 [1]: > 100 µM (inactive)
IC50 [3]: > 100 µM (not active)

C=CCc1cccc(/C=N/NC(=O)CNc2ccccc2OC)c1O
IC50 [8]: > 119 µM (inactive)
EC50 [14]: 7.37 µM (active)
EC50 [15]: > 160 µM (inactive)
EC50 [16]: 2.01 µM (active)
EC50 [17]: > 38 µM (not active)
IC50 (Exodeoxyribonuclease V): > 119 µM (inactive)

Cc1ccc(SCc2cc(O)nc(SCC(=O)Nc3cc(Cl)ccc3Cl)n2)cc1
IC50 (HEK293 [18]): > 20 µM (inactive)
EC50 (Streptococcus): 38.5 µM (active)
IC50 [19]: > 20 µM (inactive)
EC50 (HEK293 [20]): 6.75 µM (active)
IC50 (HEK293 [21]): > 20 µM (inactive)
EC50 [22]: 9.13 µM (active)
IC50 (HEK293 [23]): 9.47 µM (inactive)
IC50 (HEK293 [24]): > 20 µM (inactive)

CC(C)C(c1nnnn1C(C)(C)C)N1CCC(Cc2ccccc2)CC1 (centres undefined)
IC50 [1]: > 100 µM (inactive)
IC50 [3]: > 100 µM (not active)

Cc1ccc(CN2C3CCCC2CC(NC(=O)Nc2cccc(F)c2)C3)cc1 (centres undefined)
IC50 [11]: 63.3 µM (active)
IC50 [12]: 9.9 µM (active)
IC50 [13]: > 100 µM (inactive)

O=C(NCCCCc1ccccc1)NC[C@@H]1CC[C@@H](Cc2ccc(-c3ccccc3)cc2)O1
IC50 [11]: 15.6 µM (active)
IC50 [12]: 2.6 µM (active)
IC50 [13]: 2.1 µM (active)
